Experimental data: patent US7884117B2, “Carbonylamino pyrrolopyrazoles, potent kinase inhibitors” (Pfizer Inc., priority 2005, dated 2011)

Molecular target: T1, PAK4 Kinase domain (PAK4 KD) (Homo sapiens, UniProt O96013)
T1 construct: Cloning, expression, and purification of recombinant PAK4 Kinase domain (PAK4 KD); His tag (pET28a(+)/pET24a(+), Ni-NTA purification) (N, cleaved yes); GST (pGST4.5, glutathione column) (N, cleaved yes); made in house; host or cells: E. coli BL21(DE3)
Experiment: PAK4 kinase domain enzymatic assay (PK/LDH-coupled, Ki)
Type: biochemical
Conditions: for Ki: PAK4 Kinase Domain

T1 sequence (O96013 321-572 limits assumed): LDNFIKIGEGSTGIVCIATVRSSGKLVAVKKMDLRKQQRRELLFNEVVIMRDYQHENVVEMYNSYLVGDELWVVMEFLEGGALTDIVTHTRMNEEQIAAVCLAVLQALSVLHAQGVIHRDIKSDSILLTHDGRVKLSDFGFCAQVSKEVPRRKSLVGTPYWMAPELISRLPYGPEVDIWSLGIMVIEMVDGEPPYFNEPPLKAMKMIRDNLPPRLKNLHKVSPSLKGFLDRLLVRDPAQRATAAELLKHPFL

Row | SMILES | Ki | inhibition at 1 µM
1 | CC1(C)c2[nH]nc(NC(=O)c3ccccc3)c2CN1C(=O)N[C@@H]1C[C@H]1c1ccccc1 (relative stereo) [Example 58, 3-(benzoylamino)-6,6-dimethyl-N-[trans-2-phenylcyclopropyl]-4,6-dihydropyrrolo[3,4-c]pyrazole-5(1H)-carboxamide] | 96 nM | 
2 | CC1(C)c2[nH]nc(NC(=O)Cc3ccc(F)cc3)c2CN1C(=O)N[C@@H]1C[C@H]1c1ccccc1 (relative stereo) [Example 70, 3-{[(4-fluorophenyl)acetyl]amino}-6,6-dimethyl-N-[trans-2-phenylcyclopropyl]-4,6-dihydropyrrolo[3,4-c]pyrazole-5(1H)-carboxamide] | 223 nM | 
3 | COc1ccc(CC(=O)Nc2n[nH]c3c2CN(C(=O)N[C@@H]2C[C@H]2c2ccccc2)C3(C)C)cc1 (relative stereo) [Example 101, 3-{[(4-methoxyphenyl)acetyl]amino}-6,6-dimethyl-N-[trans-2-phenylcyclopropyl]-4,6-dihydropyrrolo[3,4-c]pyrazole-5(1H)-carboxamide] | 113 nM | 
4 | CCC(C(=O)Nc1n[nH]c2c1CN(C(=O)N[C@@H]1C[C@H]1c1ccccc1)C2(C)C)c1ccccc1 (relative stereo) [Example 107, 6,6-dimethyl-3-[(2-phenylbutanoyl)amino]-N-[trans-2-phenylcyclopropyl]-4,6-dihydropyrrolo[3,4-c]pyrazole-5(1H)-carboxamide] | 260 nM | 
5 | COc1ccc(C(=O)Nc2n[nH]c3c2CN(C(=O)N[C@@H]2C[C@H]2c2ccccc2)C3(C)C)cc1OC (relative stereo) [Example 109, 3-[(3,4-dimethoxybenzoyl)amino]-6,6-dimethyl-N-[trans-2-phenyl-cyclopropyl]-4,6-dihydropyrrolo[3,4-c]pyrazole-5(1H)-carboxamide] | 176 nM | 
6 | COCC(=O)Nc1n[nH]c2c1CN(C(=O)O[C@H](CN(C)C)c1ccccc1)C2(C)C [Example 14, (1S)-2-(dimethylamino)-1-phenylethyl 3-[(methoxyacetyl)amino]-6,6-dimethyl-4,6-dihydropyrrolo[3,4-c]pyrazole-5(1H)-carboxylate] | 356 nM | 
7 | CN(C)C[C@@H](OC(=O)N1Cc2c(NC(=O)c3ccccc3F)n[nH]c2C1(C)C)C1CCCCC1 [Example 33, (1S)-1-cyclohexyl-2-(dimethylamino)ethyl 3-[(2-fluorobenzoyl)amino]-6,6-dimethyl-4,6-dihydropyrrolo[3,4-c]pyrazole-5(1H)-carboxylate] | 220 nM | 
8 | C[C@@H](CN(C)C)OC(=O)N1Cc2c(NC(=O)c3ccc(F)cc3F)n[nH]c2C1(C)C [Example 37, (1S)-2-(dimethylamino)-1-methylethyl 3-[(2,4-difluorobenzoyl)amino]-6,6-dimethyl-4,6-dihydropyrrolo[3,4-c]pyrazole-5(1H)-carboxylate] | 564 nM | 
9 | CN(C)[C@@H](COC(=O)N1Cc2c(NC(=O)c3ccc(F)cc3)n[nH]c2C1(C)C)c1ccccc1 [Example 41, (R)-2-(dimethylamino)-2-phenylethyl 3-[(4-fluorobenzoyl)amino]-6,6-dimethyl-4,6-dihydropyrrolo[3,4-c]pyrazole-5(1H)-carboxylate] | 786 nM | 
10 | CN(C)[C@H](COC(=O)N1Cc2c(NC(=O)c3ccc(F)cc3)n[nH]c2C1(C)C)c1ccccc1 [Example 42, (S)-2-(dimethylamino)-2-phenylethyl 3-[(4-fluorobenzoyl)amino]-6,6-dimethyl-4,6-dihydropyrrolo[3,4-c]pyrazole-5(1H)-carboxylate] | 955 nM | 
11 | CC1(C)c2[nH]nc(NC(=O)c3ccccc3)c2CN1C(=O)NC1CCN(Cc2ccccc2)C1 (stereo not drawn) [Example 59, 3-(benzoylamino)-N-(1-benzylpyrrolidin-3-yl)-6,6-dimethyl-4,6-dihydropyrrolo[3,4-c]pyrazole-5(1H)-carboxamide] | 448 nM | 
12 | CC1(C)c2[nH]nc(NC(=O)c3ccccc3)c2CN1C(=O)NC(CN1CCCC1)c1ccccc1 (stereo not drawn) [Example 60, 3-(benzoylamino)-6,6-dimethyl-N-(1-phenyl-2-pyrrolidin-1-ylethyl)-4,6-dihydropyrrolo[3,4-c]pyrazole-5(1H)-carboxamide] | 267 nM | 
13 | CC1(C)c2[nH]nc(NC(=O)c3ccccc3)c2CN1C(=O)NC1CCCN(Cc2ccccc2)C1 (stereo not drawn) [Example 61, 3-(benzoylamino)-N-(1-benzylpiperidin-3-yl)-6,6-dimethyl-4,6-dihydropyrrolo[3,4-c]pyrazole-5(1H)-carboxamide] | 444 nM | 
14 | CCC(NC(=O)N1Cc2c(NC(=O)c3ccccc3)n[nH]c2C1(C)C)c1ccccc1 (stereo not drawn) [Example 62, 3-(benzoylamino)-6,6-dimethyl-N-(1-phenylpropyl)-4,6-dihydropyrrolo[3,4-c]pyrazole-5(1H)-carboxamide] | 308 nM | 
15 | CC[C@@H](NC(=O)N1Cc2c(NC(=O)c3ccccc3)n[nH]c2C1(C)C)c1ccccc1 [Example 63, 3-(benzoylamino)-6,6-dimethyl-N-[(1R)-1-phenylpropyl]-4,6-dihydropyrrolo[3,4-c]pyrazole-5(1H)-carboxamide] | 178 nM | 
16 | CC1(C)c2[nH]nc(NC(=O)c3ccccc3)c2CN1C(=O)N[C@H](CN)c1ccccc1 [Example 64, N-[(1S)-2-amino-1-phenylethyl]-3-(benzoylamino)-6,6-dimethyl-4,6-dihydropyrrolo[3,4-c]pyrazole-5(1H)-carboxamide] | 19.3 nM | 
17 | CC1(C)c2[nH]nc(NC(=O)C3CCC3)c2CN1C(=O)N[C@@H]1CCN(Cc2ccccc2)C1 [Example 65, N-[(3R)-1-benzylpyrrolidin-3-yl]-3-[(cyclobutylcarbonyl)amino]-6,6-dimethyl-4,6-dihydropyrrolo[3,4-c]pyrazole-5(1H)-carboxamide] | 849 nM | 
18 | CN(C)CC(CC(=O)N1Cc2c(NC(=O)c3ccc(F)cc3)n[nH]c2C1(C)C)c1ccccc1 (stereo not drawn) [Example 66, N-{5-[4-(dimethylamino)-3-phenylbutanoyl]-6,6-dimethyl-1,4,5,6-tetrahydropyrrolo[3,4-c]pyrazol-3-yl}-4-fluorobenzamide] | 556 nM | 
19 | CN(C)CC(CC(=O)N1Cc2c(NC(=O)c3ccccc3)n[nH]c2C1(C)C)c1ccc(Cl)cc1 (stereo not drawn) [Example 67, N-{5-[3-(4-chlorophenyl)-4-(dimethylamino)butanoyl]-6,6-dimethyl-1,4,5,6-tetrahydropyrrolo[3,4-c]pyrazol-3-yl}benzamide] | 193 nM | 
20 | CC(C)[C@@H](CN(C)C)OC(=O)N1Cc2c(NC(=O)c3ccccc3)n[nH]c2C1(C)C [Example 74, (1S)-1-[(dimethylamino)methyl]-2-methylpropyl 3-(benzoylamino)-6,6-dimethyl-4,6-dihydropyrrolo[3,4-c]pyrazole-5(1H)-carboxylate] | 475 nM | 
21 | CN(C)C[C@H](Cc1ccccc1)OC(=O)N1Cc2c(NC(=O)c3ccc(F)cc3)n[nH]c2C1(C)C [Example 76, (1S)-1-benzyl-2-(dimethylamino)ethyl 3-[(4-fluorobenzoyl)amino]-6,6-dimethyl-4,6-dihydropyrrolo[3,4-c]pyrazole-5(1H)-carboxylate] | 468 nM | 
22 | CC(C)C[C@@H](CN(C)C)OC(=O)N1Cc2c(NC(=O)c3ccccc3F)n[nH]c2C1(C)C [Example 78, (1S)-1-[(dimethylamino)methyl]-3-methylbutyl 3-[(2-fluorobenzoyl)amino]-6,6-dimethyl-4,6-dihydropyrrolo[3,4-c]pyrazole-5(1H)-carboxylate] | 284 nM | 
23 | CN(C)C[C@@H](OC(=O)N1Cc2c(NC(=O)C3CCOCC3)n[nH]c2C1(C)C)c1ccccc1 [Example 91, (S)-2-(dimethylamino)-1-phenylethyl 6,6-dimethyl-3-(tetrahydro-2H-pyran-4-carboxamido)pyrrolo[3,4-c]pyrazole-5(1H,4H,6H)-carboxylate] | 286 nM | 
24 | CC1(C)c2[nH]nc(NC(=O)c3ccc(F)cc3)c2CN1C(=O)NC(CN1CCOCC1)c1ccccc1 (stereo not drawn) [Example 102, 3-[(4-fluorobenzoyl)amino]-6,6-dimethyl-N-(2-morpholin-4-yl-1-phenylethyl)-4,6-dihydropyrrolo[3,4-c]pyrazole-5(1H)-carboxamide] | 621 nM | 
25 | CN(C)C[C@H](c1ccccc1)N(C)C(=O)N1Cc2c(NC(=O)c3ccccc3)n[nH]c2C1(C)C [Example 103, 3-(benzoylamino)-N-[(1S)-2-(dimethylamino)-1-phenylethyl]-N,6,6-trimethyl-4,6-dihydropyrrolo[3,4-c]pyrazole-5(1H)-carboxamide] | 512 nM | 
26 | CCc1cc(C(=O)Nc2n[nH]c3c2CN(C(=O)N[C@H](CN(C)C)c2ccccc2)C3(C)C)no1 [Example 105, (S)-N-(2-(dimethylamino)-1-phenyl)-3-(5-ethylisoxazole-3-carboxamido)-6,6-dimethylpyrrolo [3,4-c]pyrazole-5(1H,4H,6H)-carboxamide] | 121 nM | 
27 | COc1cc(C(=O)Nc2n[nH]c3c2CN(C(=O)N[C@H](CN(C)C)c2ccccc2)C3(C)C)nc(OC)n1 [Example 106, (S)-3-(2,4-dimethoxypyrimidine-6-carboxamido)-N-(2-(dimethylamino)-1-phenylethyl)-6,6-dimethylpyrrolo[3,4-c]pyrazole-5(1H,4H,6H)-carboxamide] | 412 nM | 
28 | Cc1ccc(Cl)c(C(=O)Nc2n[nH]c3c2CN(C(=O)N[C@H](CN(C)C)c2ccccc2)C3(C)C)c1F [Example 110, (S)-3-(6-chloro-2-fluoro-3-methylbenzamido)-N-(2-(dimethylamino)-1-phenylethyl)-6,6-dimethylpyrrolo[3,4-c]pyrazole-5(1H,4H,6H)-carboxamide] | 81.7 nM | 
29 | CN(C)C[C@@H](NC(=O)N1Cc2c(NC(=O)c3cnccn3)n[nH]c2C1(C)C)c1ccccc1 [Example 111, (S)-N-(2-(dimethylamino)-1-phenylethyl)-6,6-dimethyl-3-(pyrazine-2-carboxamido)pyrrolo[3,4-c]pyrazole-5 (1H,4H,6H)-carboxamide] |  | 42%
30 | CN(C)C[C@@H](NC(=O)N1Cc2c(NC(=O)C3COc4ccccc4O3)n[nH]c2C1(C)C)c1ccccc1 (stereo partly drawn) [Example 112, 3-(2,3-dihydrobenzo[b][1,4]dioxine-2-carboxamido)-N-((S)-2-(dimethylamino)-1-phenylethyl)-6,6-dimethylpyrrolo[3,4-c]pyrazole-5(1H,4H,6H)-carboxamide] |  | 66%
